In article PMC4721062, “Oxadiazole-2-oxides may have other functional targets, in addition to SjTGR, through which they cause mortality in Schistosoma japonicum” (Parasites & Vectors, 2016):
Read-outs that look alike come from different tables or passages of the source.

Legend:
[1] = system: juvenile S. japonicum; assay: microbe, parasite or virus in culture; assay type: cell-based; conditions: for mortality at 50 µM / killing at 2 µM / killing at 5 µM / killing at 50 µM: Schistosoma japonicum; for mortality at 50 µM: read-out: Mortality of juvenile worms; for killing at 2 µM / killing at 5 µM / killing at 50 µM / Killing activity 24hr / Killing activity 48hr / Killing activity 72hr: juvenile worms; for Killing activity 24hr / Killing activity 48hr / Killing activity 72hr: 10 μM
Protocol: Infected Oncomelania hupensis, provided by the Department of Snail Biology, Jiangsu Institute of Parasitic Diseases, were incubated at 25–28 °C, under illumination, for 2 h to hatch S. japonicum cercariae. The cercariae were collected from the water surface with clean cover glass and placed into a centrifuge tube using pre cooled RPMI 1640. Centrifugation was performed for 1 min at 1500 rpm, and then the steps above were repeated. After centrifugation, the supernatant solution was removed. The cercariae at the bottom were washed twice and resuspended with RPMI 1640. Approximately 20–30 cercariae (1 mL of the resuspension medium) were added to one well in a 24-well culture plate. They were incubated overnight at 37 °C with 5 % CO2. The survival rates and number of tails shed were observed under an inverted microscope. Cercariae that had shed their tails were used as juvenile S. japonicum.
20–30 juvenile worms were transferred into each well of a 24-well culture plate, containing 2 mL RPMI 1640 medium, 20 mM HEPES, 100 IU/mL penicillin, […] streptomycin and 10 % fetal bovine serum. Then, oxadiazole-2-oxides (2, 5, 10, and 50 μM), diluted with the RPMI 1640 medium, were added to their allocated wells. The worms in the negative control wells were treated with equal volumes of RPMI 1640 or DMSO and worms treated with AS were observed as positive controls. The juvenile worms’ survival rates were observed under an inverted phase contrast microscope (Leica, Wetzlar, Germany) at 24, 48 and 72 h. Parasite death was defined as an unclear internal structure of the juvenile worms, with incomplete tegument and contents overflowing radially, or unclear internal structure with complete tegument, but having no motor activity during 1 min of continuous observation. All assays were repeated three times.
^b Data collected by visual examination of worm movement and shape; % D = The number of worms dead / The total number of worms observed, and worms dead judged by unclear internal structure of juvenile worms with uncompleted tegument, and contents overflowing radially, or unclear internal structure with complete tegument, but having no motor activity during 1 min of continuous observation. The data presented are the average of three independent experiments.

[2] = system: adult S. japonicum; assay: microbe, parasite or virus in culture; assay type: cell-based
Text: ICR mice (20–22 g), were obtained from the Shanghai Sub-Center of Experimental Animals, Chinese Academy of Sciences. They were maintained at the Department of Experimental Animals, Jiangsu Institute of Parasitic Diseases. To infect each mouse, its abdominal skin was exposed to 50 S. japonica cercariae. All of the mice were executed to collect S. japonica adult worms, through portal vein perfusion, 35 days post-infection. The adult S. japonica collected were washed with RPMI 1640 medium and then kept in RPMI 1640 medium (pH 7.5) with HEPES 20 mM, penicillin (100 IU/mL), streptomycin ([…]) and 10 % fetal bovine serum. Then, two pairs of adult worms were transferred into each well of a 24-well culture plate, with 2 mL of the same medium. The worms were cultured at 37 °C in a humid atmosphere with 5 % CO2.
Adult worms were cultured in a 24-well culture plate for 30–60 min at 37 °C, in a humid atmosphere with 5 % CO2. Then, oxadiazole-2-oxides at different concentrations (10, 25, 50, 100 μM) were added. Equal volumes of RPMI 1640 or DMSO were applied as negative controls, while PZQ was applied as a positive control. The adult worm mobility and parasite survival rates were monitored using an inverted phase contrast microscope, at 24, 48 and 72 h. Parasite death was defined as there being no motor activity during 2 min of continuous observation, and morphological and tegumental alterations. All assays were repeated three times.
^b Data collected by visual examination of worm movement and shape; n.e. […] The data presented are the average of three independent experiments.

[3] = target: T1, recombinant SjTGR (Schistosoma japonicum, UniProt B5THG7); assay: Inhibition of TrxR activity of recombinant SjTGR (DTNB assay); assay type: biochemical; conditions: 50 nM SjTGR, 1 mM NADPH, 15 min preincubation, DTNB reduction; for IC50: read-out: IC50 of SjTGR
T1 sequence (B5THG7 1-596): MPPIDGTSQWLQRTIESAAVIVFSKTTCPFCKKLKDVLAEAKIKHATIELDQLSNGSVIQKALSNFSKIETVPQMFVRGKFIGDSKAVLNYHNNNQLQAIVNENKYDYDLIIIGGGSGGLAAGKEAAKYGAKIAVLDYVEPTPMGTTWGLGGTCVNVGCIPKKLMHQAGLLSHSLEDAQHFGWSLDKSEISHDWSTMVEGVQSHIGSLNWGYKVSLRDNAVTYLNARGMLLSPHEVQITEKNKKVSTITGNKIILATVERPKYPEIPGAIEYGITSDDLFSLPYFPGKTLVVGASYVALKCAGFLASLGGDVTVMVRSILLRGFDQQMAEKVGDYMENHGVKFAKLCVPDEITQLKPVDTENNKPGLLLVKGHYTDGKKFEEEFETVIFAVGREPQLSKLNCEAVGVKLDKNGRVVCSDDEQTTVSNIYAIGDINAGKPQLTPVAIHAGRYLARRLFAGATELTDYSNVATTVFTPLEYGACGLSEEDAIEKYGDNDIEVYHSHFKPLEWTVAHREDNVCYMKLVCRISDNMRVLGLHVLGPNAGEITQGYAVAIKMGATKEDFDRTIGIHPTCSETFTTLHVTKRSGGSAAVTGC
Protocol: The purified recombinant SjTGR proteins were produced according to the method described by Song et al.. The inhibition of TrxR activity by the recombinant SjTGR was performed as reported by Rai et al.. Briefly, 50 nM SjTGR and 1 mM NADPH were incubated with different concentrations of oxadiazole-2-oxides (2, 4, 6, 10, 20 μM) for 15 min at room temperature. Then, potassium phosphate buffer (pH 7.4) containing 10 mM EDTA, 100 μM NADPH, and 3 mM DTNB was added to start the reaction. The increase of absorbance at 412 nm was monitored during the first 2 min. All assays were done in triplicate.
50 nM SjTGR and 1 mM NADPH were incubated with different concentrations of oxadiazole-2-oxides (2, 4, 6, 10, 20 μM) for 15 min at room temperature. Then, potassium phosphate buffer (pH 7.4) containing 10 mM EDTA, 100 μM NADPH, 3 mM DTNB was added to start the reaction. The increase in absorbance at 412 nm was monitored during the first 2 min. All assays were done in triplicate. Results shown are the mean ± SD (n = 3)

[4] = 24 h, read-out: Killing activity 24hr
[5] = 48 h, read-out: Killing activity 48hr
[6] = 72 h, read-out: Killing activity 72hr
[7] = Schistosoma japonicum, adult worms, 25 μM, 72 h, read-out: Killing activity 72hr
[8] = Schistosoma japonicum, adult worms, 50 μM, 72 h, read-out: Killing activity 72hr
[9] = Schistosoma japonicum, adult worms, 100 μM, 48 h, read-out: Killing activity 48hr
[10] = Schistosoma japonicum, adult worms, 100 μM, 72 h, read-out: Killing activity 72hr
[11] = Schistosoma japonicum, adult worms, 100 μM, 24 h, read-out: Killing activity 24hr

Row | SMILES | killing at 2 µM [1, 4] [%] | killing at 2 µM [1, 5] [%] | killing at 2 µM [1, 6] [%] | killing at 5 µM [1, 4] [%] | killing at 5 µM [1, 5] [%] | killing at 5 µM [1, 6] [%] | killing at 50 µM [1, 4] [%] | killing at 50 µM [1, 5] [%] | killing at 50 µM [1, 6] [%] | Killing activity 24hr ([1]; 24 h) [%D] | Killing activity 48hr ([1]; 48 h) [%D] | Killing activity 72hr ([1]; 72 h) [%D] | killing at 100 µM [2, 9] [%] | killing at 100 µM [2, 10] [%] | Killing activity 24hr ([2]; adult worms, 10 μM, 24 h) | Killing activity 48hr ([2]; adult worms, 10 μM, 48 h) | Killing activity 72hr ([2]; adult worms, 10 μM, 72 h) | Killing activity 24hr ([2]; adult worms, 25 μM, 24 h) | Killing activity 48hr ([2]; adult worms, 25 μM, 48 h) | Killing activity 24hr ([2]; adult worms, 50 μM, 24 h) | other results
1 | N#Cc1c(-c2ccc(OCC(=O)c3ccccc3)cc2)no[n+]1[O-] [Compound 17] | 28.1 | 37.5 | 46.9 | 29.2 | 41.7 | 50 | 45.8 | 60.4 | 72.9 | 40.0 | 48.6 | 54.3 | 57.1 | 85.7 | n.e. | n.e. | 50.0%D | n.e. | n.e. | n.e. | mortality at 50 µM ([1]; 24 h): < 30%; killing at 25 µM [2, 7]: 62.5%; killing at 50 µM ([2]; Schistosoma japonicum, adult worms, 50 μM, 48 h, read-out: Killing activity 48hr): 40%; killing at 50 µM [2, 8]: 87.5%; Killing activity 24hr ([2]; adult worms, 100 μM, 24 h): sluggish; Mortality of adult worms ([2]; adult worms, 100 μM, 24 h): did not cause death; IC50 of SjTGR [3]: did not inhibit; IC50 [3]: > 20 µM
2 | N#Cc1c(-c2ccc(COc3ccc4ccccc4c3C=O)cc2)no[n+]1[O-] [Compound 27] | 9.1 | 9.1 | 10.6 | 14.9 | 25.7 | 27 | 40 | 44.4 | 46.7 | 15.6 | 24.4 | 30.0 | 33.3 | 77.8 | n.e. | n.e. | 62.5%D | sluggish | sluggish | sluggish | killing at 25 µM [2, 7]: 75%; killing at 50 µM [2, 8]: 87.5%; killing at 100 µM [2, 11]: 22.2%; Killing activity 48hr ([2]; adult worms, 50 μM, 48 h): sluggish; IC50 of SjTGR [3]: did not inhibit; IC50 [3]: > 20 µM
3 | [O-][n+]1onc(-c2ccc(Br)cc2)c1CO [Compound 4c] | 15 | 20 | 20 | 24.5 | 24.5 | 26.4 | 25.8 | 25.8 | 51.6 | 7.1 | 14.3 | 17.9 | 71.4 | 71.4 | n.e. | n.e. | n.e. | n.e. | n.e. | n.e. | mortality at 50 µM ([1]; 24 h): < 30%; mortality at 100 µM ([2]; Schistosoma japonicum, read-out: Mortality of adult worms): 57.1 ± 2.3%; killing at 100 µM [2, 11]: 57.1%; Killing activity 72hr ([2]; adult worms, 25 μM, 72 h): n.e.; Killing activity 48hr ([2]; adult worms, 50 μM, 48 h): n.e.; Killing activity 72hr ([2]; adult worms, 50 μM, 72 h): n.e.; IC50 [3]: 8.6 µM
